Measurements published in patent US20240108006A1, “PESTICIDALLY ACTIVE HETEROAROMATIC COMPOUNDS” (SYNGENTA CROP PROTECTION AG, priority 2021, published 2024).

Experiments:
Format in all cases: in vivo
Euschistus heros = assay: Example B3: Euschistus heros (neotropical brown stink bug), soybean leaves, N2 nymphs; details: 120 h, application rate of 200 ppm, 5 days after infestation, read-out: control in at least one of the two categories (mortality or growth inhibition)
Diabrotica balteata = assay: Example B2: Diabrotica balteata (corn root worm), maize sprouts, L2 larvae; details: 96 h, application rate of 200 ppm, 4 days after infestation, read-out: control in at least one of the two categories (mortality or growth inhibition)
Outline: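 Maize sprouts on agar sprayed with aqueous test solutions made from 10,000 ppm DMSO stocks, dried, then infested with 6 to 10 L2 larvae per well. Mortality and growth inhibition assessed versus untreated samples 4 days after infestation; application rate 200 ppm.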

Plutella xylostella [1] = assay: Example B8: Plutella xylostella (diamond back moth), artificial diet 24-well, eggs; details: 192 h, application rate of 200 ppm, 8 days after infestation, read-out: effect in at least one of the two categories (mortality or growth inhibition)
Outline: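 Artificial diet in 24-well plates treated with aqueous dilutions of DMSO stock (10,000 ppm stock) and dried, then infested with Plutella eggs. Mortality and growth inhibition scored versus untreated samples 8 days after infestation.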

Spodoptera littoralis [2] = assay: Example B10: Spodoptera littoralis (Egyptian cotton leaf worm), uptake by lettuce roots from agar; details: 144 h, test rate of 12.5 ppm, 6 days after infestation, read-out: effect in at least one of the three categories (mortality, anti-feeding, or growth inhibition)
Text: Example B10: Spodoptera littoralis (Egyptian Cotton Leaf Worm)
Test compounds were applied by pipette from 10,000 ppm DMSO stock solutions into 24-well plates and mixed with agar. Lettuce seeds were placed onto the agar and the multi well plate was closed by another plate which also contained agar. After 7 days the compound was absorbed by the roots and the lettuce grew into the lid plate. The lettuce leaves were then cut off into the lid plate. Spodoptera eggs were pipetted through a plastic stencil onto a humid gel blotting paper and the lid plate was closed with it. The samples were assessed for mortality, anti-feedant effect and growth inhibition in comparison to untreated samples 6 days after infestation.
The following compounds gave an effect of at least 80% in at least one of the three categories (mortality, anti-feeding, or growth inhibition) at a test rate of 12.5 ppm: […]

Plutella xylostella [3] = assay: Example B12: Plutella xylostella (diamondback moth), artificial diet 96-well; details: 216 h, application rate of 500 ppm, 9 days after infestation
Description: Example B12: Plutella xylostella (Diamondback Moth)
96-well microtiter plates containing artificial diet were treated with aqueous test solutions, prepared from 10,000 ppm DMSO stock solutions, by a liquid handling robot. After drying, eggs (-30 per well) were infested onto a netted lid which was suspended above the diet. The eggs hatch and L1 larvae move down to the diet. The samples were assessed for mortality 9 days after infestation.
The following compounds gave an effect of at least 80% average mortality at an application rate of 500 ppm: […]

Myzus persicae [4] = assay: Example B11: Myzus persicae (green peach aphid), sucrose solution 96-well; details: 120 h, application rate of 50 ppm, 5 days after infestation
Text: Example B11: Myzus persicae (Green Peach Aphid)
Test compounds prepared from 10,000 ppm DMSO stock solutions were applied by a liquid handling robot into 96-well microtiter plates and mixed with a sucrose solution. Parafilm was stretched over the 96-well microtiter plate and a plastic stencil with 96 holes was placed onto the plate. Aphids were sieved into the wells directly onto the Parafilm. The infested plates were closed with a gel blotting card and a second plastic stencil and then turned upside down. The samples were assessed for mortality 5 days after infestation.

Myzus persicae [5] = assay: Example B7: Myzus persicae (green peach aphid), intrinsic activity, sucrose solution 24-well; details: 120 h, application rate of 12.5 ppm, 5 days after infestation, read-out: control (mortality)
Outline: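 Compounds from 10,000 ppm DMSO stocks were mixed into sucrose solution in wells at a rate of 12.5 ppm. Aphid-infested pea seedlings were placed on a Parafilm membrane over the solution, so aphids fed through it. Mortality was scored 5 days after infestation.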

Chilo suppressalis = assay: Example B1: Chilo suppressalis (striped rice stemborer), artificial diet, L2 larvae; details: 144 h, application rate of 200 ppm, 6 days after infestation, read-out: control in at least one of the three categories (mortality, anti-feedant effect, or growth inhibition)
Outline: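 Artificial diet was treated with aqueous test solutions made from 10,000 ppm DMSO stocks, dried, then infested with L2 larvae (6-8 per well). Mortality, anti-feeding effect and growth inhibition were scored against untreated samples 6 days after infestation, and control was counted when any category exceeded untreated.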

Spodoptera littoralis [6] = assay: Example B9: Spodoptera littoralis (Egyptian cotton leaf worm), cotton leaf discs, L1 larvae; details: foliar, 72 h, application rate of 200 ppm, 3 days after infestation, read-out: control in at least one of the three categories (mortality, anti-feedant effect, or growth inhibition)
Outline: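 Cotton leaf discs on agar sprayed with aqueous test solutions from 10,000 ppm DMSO stocks, dried, then infested with five L1 larvae. Mortality, anti-feeding and growth inhibition scored against untreated samples 3 days after infestation.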

Tetranychus urticae = assay: Example B13: Tetranychus urticae (two-spotted spider mite), feeding/contact activity; details: 192 h, read-out: mortality on mixed population (mobile stages)
Description: Example B13: Tetranychus urticae (Two-Spotted Spider Mite):Feeding/Contact Activity
Bean leaf discs on agar in 24-well microtiter plates were sprayed with aqueous test solutions prepared from 10,000 ppm DMSO stock solutions. After drying the leaf discs were infested with a mite population of mixed ages. The samples were assessed for mortality on mixed population (mobile stages) 8 days after infestation.

Myzus persicae [7] = assay: Example B5: Myzus persicae (green peach aphid), feeding/contact activity; details: 144 h, application rate of 200 ppm, 6 days after infestation
Description: Example B5: Myzus persicae (Green Peach Aphid):Feeding/Contact Activity
Sunflower leaf discs were placed onto agar in a 24-well microtiter plate and sprayed with aqueous test solutions prepared from 10,000 ppm DMSO stock solutions. After drying, the leaf discs were infested with an aphid population of mixed ages. The samples were assessed for mortality 6 days after infestation.

Myzus persicae [8] = assay: Example B6: Myzus persicae (green peach aphid), systemic activity, pea seedlings; details: 144 h, test rate of 24 ppm, 6 days after placing seedlings into test solutions
Description: Example B6: Myzus persicae (Green Peach Aphid). Systemic Activity
Roots of pea seedlings infested with an aphid population of mixed ages were placed directly into aqueous test solutions prepared from 10,000 DMSO stock solutions. The samples were assessed for mortality 6 days after placing seedlings into test solutions.

[9] = system: Frankliniella occidentalis; assay: Example B4: Frankliniella occidentalis (western flower thrips), feeding/contact activity; details: 168 h, application rate of 200 ppm, 7 days after infestation
Description: Example B4: Frankliniella occidentalis (Western Flower Thrips):Feeding/Contact Activity
Sunflower leaf discs were placed on agar in 24-well microtiter plates and sprayed with aqueous test solutions prepared from 10,000 DMSO stock solutions. After drying the leaf discs were infested with a Frankliniella population of mixed ages. The samples were assessed for mortality 7 days after infestation.

CC(NC(=O)Nc1ccc(C(F)(F)F)cc1Cl)c1ncnn1-c1ncccn1 (centres unmarked) [Example P5, 1-[2-chloro-4-(trifluoromethyl)phenyl]-3-[1-(2-pyrimidin-2-yl-1,2,4-triazol-3-yl)ethyl]urea]
≥ 80%: percent control (mortality or growth inhibition) at 200 ppm (Euschistus heros) | percent control (mortality or growth inhibition) at 200 ppm (Diabrotica balteata) | percent effect (mortality or growth inhibition) at 200 ppm (Plutella xylostella [1]) | percent effect (mortality, anti-feeding or growth inhibition) at 12.5 ppm (Spodoptera littoralis [2]) | mortality at 500 ppm (Plutella xylostella [3]) | mortality at 50 ppm (Myzus persicae [4]) | mortality at 12.5 ppm (Myzus persicae [5]) | percent control (mortality, anti-feedant effect or growth inhibition) at 200 ppm (Chilo suppressalis) | percent control (mortality, anti-feedant effect or growth inhibition) at 200 ppm (Spodoptera littoralis [6])

C[C@H](NC(=O)Nc1cnc(C(F)(F)F)cc1Cl)c1ncnn1-c1cnccn1 [Example P277, 1-[4-chloro-6-(trifluoromethyl)-3-pyridyl]-3-[(1S)-1-(2-pyrazin-2-yl-1,2,4-triazol-3-yl)ethyl]urea]
≥ 80%: percent control (mortality or growth inhibition) at 200 ppm (Euschistus heros) | mortality at 200 ppm (Tetranychus urticae) | percent control (mortality or growth inhibition) at 200 ppm (Diabrotica balteata) | mortality at 200 ppm (Myzus persicae [7]) | percent effect (mortality or growth inhibition) at 200 ppm (Plutella xylostella [1]) | mortality at 12.5 ppm (Myzus persicae [5]) | percent control (mortality, anti-feedant effect or growth inhibition) at 200 ppm (Chilo suppressalis) | percent control (mortality, anti-feedant effect or growth inhibition) at 200 ppm (Spodoptera littoralis [6])

C[C@H](NC(=O)Nc1cc(OC(F)(F)C(F)F)c(Cl)cc1Cl)c1ncnn1-c1ncccn1 [Example P46, 1-[2,4-dichloro-5-(1,1,2,2-tetrafluoroethoxy)phenyl]-3-[(1S)-1-(2-pyrimidin-2-yl-1,2,4-triazol-3-yl)ethyl]urea]
≥ 80%: percent control (mortality or growth inhibition) at 200 ppm (Euschistus heros) | percent control (mortality or growth inhibition) at 200 ppm (Diabrotica balteata) | mortality at 200 ppm (Myzus persicae [7]) | percent effect (mortality or growth inhibition) at 200 ppm (Plutella xylostella [1]) | mortality at 50 ppm (Myzus persicae [4]) | mortality at 12.5 ppm (Myzus persicae [5]) | percent control (mortality, anti-feedant effect or growth inhibition) at 200 ppm (Chilo suppressalis) | percent control (mortality, anti-feedant effect or growth inhibition) at 200 ppm (Spodoptera littoralis [6])

C[C@H](NC(=O)Nc1cnc(C(F)(F)F)cc1Cl)c1ncnn1-c1ncccn1 [Example P103, 1-[4-chloro-6-(trifluoromethyl)-3-pyridyl]-3-[(1S)-1-(2-pyrimidin-2-yl-1,2,4-triazol-3-yl)ethyl]urea]
≥ 80%: percent control (mortality or growth inhibition) at 200 ppm (Euschistus heros) | mortality at 24 ppm (Myzus persicae [8]) | percent control (mortality or growth inhibition) at 200 ppm (Diabrotica balteata) | mortality at 200 ppm (Myzus persicae [7]) | percent effect (mortality or growth inhibition) at 200 ppm (Plutella xylostella [1]) | mortality at 200 ppm [9] | mortality at 50 ppm (Myzus persicae [4]) | mortality at 12.5 ppm (Myzus persicae [5]) | percent control (mortality, anti-feedant effect or growth inhibition) at 200 ppm (Chilo suppressalis) | percent control (mortality, anti-feedant effect or growth inhibition) at 200 ppm (Spodoptera littoralis [6])

CC(NC(=O)Nc1ccc(Cl)cc1C(F)(F)F)c1ncnn1-c1ncccn1 (centres unmarked) [Example P6, 1-[4-chloro-2-(trifluoromethyl)phenyl]-3-[1-(2-pyrimidin-2-yl-1,2,4-triazol-3-yl)ethyl]urea]
≥ 80%: percent control (mortality or growth inhibition) at 200 ppm (Diabrotica balteata) | percent effect (mortality or growth inhibition) at 200 ppm (Plutella xylostella [1]) | mortality at 500 ppm (Plutella xylostella [3]) | mortality at 50 ppm (Myzus persicae [4]) | mortality at 12.5 ppm (Myzus persicae [5]) | percent control (mortality, anti-feedant effect or growth inhibition) at 200 ppm (Chilo suppressalis) | percent control (mortality, anti-feedant effect or growth inhibition) at 200 ppm (Spodoptera littoralis [6])

CC(NC(=O)Nc1ccc(C(F)(F)F)cc1Cl)c1ncnn1-c1ccc(C#N)cn1 (centres unmarked) [Example P4, 1-[2-chloro-4-(trifluoromethyl)phenyl]-3-[1-[2-(5-cyano-2-pyridyl)-1,2,4-triazol-3-yl]ethyl]urea]
≥ 80%: percent control (mortality or growth inhibition) at 200 ppm (Diabrotica balteata) | percent effect (mortality or growth inhibition) at 200 ppm (Plutella xylostella [1]) | mortality at 500 ppm (Plutella xylostella [3]) | percent control (mortality, anti-feedant effect or growth inhibition) at 200 ppm (Chilo suppressalis) | percent control (mortality, anti-feedant effect or growth inhibition) at 200 ppm (Spodoptera littoralis [6])
